Data published in US9547001B2, “Antibody specific for trans-resveratrol and use thereof” (IP Science Limited, priority 2011, dated 2017).
Where “and” joins values, the source holds several entries; their conditions need not be identical. Equal values may be shown once.

Key:
Assay type in all cases: in vivo
[1] = anti-tRV ELISA measurement of tRV in human serum after 1 mg tRV in 200 ml red wine (wine study); details: sum of 1 h + 2 h + 4 h + 6 h + 8 h, one value per volunteer
Experimental: (§1) 2 ml of ethyl acetate was added to 0.5 ml of serum sample, then mixed on a vortex for 3 minutes, followed by centrifugation for 2 minutes at 500 r/min. The upper layer of ethyl acetate was transferred into a new tube. To the remaining lower water fraction a second portion of 2 ml ethyl acetate was added and the extraction procedure was repeated. The new ethyl acetate fraction was added to the old one, giving a total volume of 4 ml, which was then dried by air flow at 60° C., using a Reacti-Therm™III, Thermo scientific, USA.[…]. 40 μl of ethanol was then added and mixed on vortex, then 160 μl of PBS with 0.5% BSA was added and mixed again. This final solution was used for the analysis described below.
RV-BSA was pre-absorbed on microplate wells in 0.1M carbonate buffer, pH=9.5 (at a concentration of 5 μg/ml) overnight at 4° C. […]
(§2) The plate was washed out four times with PBST, and then a chromogeninc substrate was added, tetramethylbenzidine+H2O2. After stopping the reaction with 1M H2SO4, optic density was read at λ450 nm, Multiscan EX (<<Thermo>>, USA).
Inhibition by free tRV of the binding of serum antibodies with immobolised RV-BSA (Kin) was calculated according to the following formula: Kin=100−(A450D/A450C−)×100, where: • A450D is the optic density in samples with free tRV (testing serum or samples from the calibrating curve), • A450 C is the an optic density without free tRV. […]

[2] = HPLC-MS measurement of tRV in human serum after 100 mg tRV capsule (nutraceutical study)
Experimental: (§3) The group of 5 volunteers comprised of 2 female and 3 male clinically healthy Caucasian persons, age between 23 and 35 years.
(§4) They were asked, before commencing this experiment, to go for 3-4 days “wash-out”, when consumption of any grape, wine, peanut, chocolate and other products which might contain them.
(§5) In the morning of the experiment, one hour after light breakfast, volunteers were given 1 gelatine capsule containing 100 mg of tRV.
(§6) Blood samples were taken from their median cubital or cephalic veins at the baseline point. Then, after administration of tRV, their blood was taken again at the following time points: 30 minutes, 1 hour, 2, 3, 4, 6 and 8 hours.
(§7) After taking blood its serum was separated, aliquoted and stored at −80° C. for further testing.

[3] = anti-tRV ELISA measurement of tRV in human serum after 100 mg tRV capsule (nutraceutical study)
Experimental: as §1
RV-BSA was pre-absorbed on microplate wells in 0.1M carbonate buffer, pH=9.5 (at a concentration of 5 μg/ml) overnight at 4° C. After washing four times the PBST plate was blocked with PBS contacting 1% of Top Block (<<Yuro>>, Switzerland).
For the calibrating curve different concentrations of tRV were added into the wells. The stock solution used was 1 mg/ml of tRV diluted in PBST with 0.5% BSA and 20% ethanol. 50 μl of each serum extract to be tested were added to parallel wells. After which 50 μl of the conjugate of HRP with monoclonal anti-tRV antibodies was added to all the wells. The content of the wells was mixed using a shaker for 1 minute and then the plate was then incubated for 1 hour at +37° C.
as §2
Inhibition by free tRV of the binding of serum antibodies with immobolised RV-BSA (Kin) was calculated according to the following formula: Kin=100−(A450D/A450C−)×100, where: • A450D is the optic density in samples with free tRV (testing serum or samples from the calibrating curve), • A450 C is the an optic density without free tRV.
as §3, §4, §5, §6, §7

[4] = HPLC-MS measurement of tRV in human serum after 1 mg tRV in 200 ml red wine (wine study); details: sum of 1 h + 2 h + 4 h + 6 h + 8 h, one value per volunteer
Experimental: The same volunteers also participated in a wine study. The same “wash out” period was used, and the same timing of the experiment was applied. Instead of taking a capsule of tRV each of the volunteers consumed 200 ml of red wine, which was selected on a basis that it would contain 1 mg of tRV in this volume. The rest of the Protocol employed was the same as above.
After taking blood, serum was separated, aliquoted and stored at −80° C. for further testing.

[5] = 1 h after 100 mg tRV, volunteers 1 and 2
[6] = 2 h after 100 mg tRV, volunteers 1 and 2
[7] = human serum, 100 mg tRV dietary supplement, sum of 30 min + 1 h + 2 h + 3 h + 4 h + 6 h + 8 h, one value per volunteer
[8] = human, serum, oral, 100 mg, 1 h after 100 mg tRV, volunteers 1 and 2
[9] = human, serum, oral, 100 mg, 2 h after 100 mg tRV, volunteers 1 and 2

Concentration of tRV in serum, HPLC-MS [2, 5]: 97 ng/mL
Concentration of tRV in serum, HPLC-MS [2, 6]: 21 ng/mL
concentration at 1 h [2, 8]: 65 ng/mL
concentration at 2 h [2, 9]: 12 ng/mL
Concentration of tRV in serum, ELISA ([3]; 30 min after 100 mg tRV, volunteers 1 and 2): 90 ng/mL
Concentration of tRV in serum, ELISA [3, 5]: 490 ng/mL
Concentration of tRV in serum, ELISA [3, 6]: 255 ng/mL
Concentration of tRV in serum, ELISA ([3]; 3 h after 100 mg tRV, volunteers 1 and 2): 10 ng/mL
Concentration of tRV in serum, ELISA ([3]; 4 h after 100 mg tRV, volunteers 1 and 2): 195 ng/mL
Concentration of tRV in serum, ELISA ([3]; 6 h after 100 mg tRV, volunteers 1 and 2): 620 ng/mL
concentration at 30 min ([3]; human, serum, oral, 100 mg, 30 min after 100 mg tRV, volunteers 1 and 2): 140 ng/mL
concentration at 1 h [3, 8]: 650 ng/mL
concentration at 2 h [3, 9]: 210 ng/mL
concentration at 3 h ([3]; human, serum, oral, 100 mg, 3 h after 100 mg tRV, volunteers 1 and 2): 20 ng/mL
concentration at 4 h ([3]; human, serum, oral, 100 mg, 4 h after 100 mg tRV, volunteers 1 and 2): 135 ng/mL
concentration at 6 h ([3]; human, serum, oral, 100 mg, 6 h after 100 mg tRV, volunteers 1 and 2): 420 ng/mL
Concentration of tRV in serum as a sum of 5 separate measurements, HPLC-MS [4]: 6 ng/ml and 572 ng/ml and 0 ng/ml (3×)
SMILES: Oc1ccc(/C=C/c2cc(O)cc(O)c2)cc1 [tRV, trans-Resveratrol]
Concentration of tRV in serum as a sum of 5 separate measurements, ELISA [1]: 310 ng/mL and 850 ng/mL and 120 ng/mL and 460 ng/mL and 380 ng/mL
Concentration of tRV in serum as a sum of 7 separate measurements, HPLC-MS [2, 7]: 98 ng/mL and 139 ng/mL and 79 ng/mL and 37 ng/mL and 107 ng/mL
Concentration of tRV in serum as a sum of 7 separate measurements, ELISA [3, 7]: 1600 ng/mL and 1900 ng/mL and 1070 ng/mL and 795 ng/mL and 1412 ng/mL
